Test results as given in patent US20220378707A1, “1-(((2S,3S,4S)-3-ETHYL-4-FLUORO-5-OXOPYRROLIDIN-2-YL)METHOXY)-7-METHOXYISOQUINOLINE-6-CARBOXAMIDE COMBINATIONS AND ORAL DOSAGE FORMS” (Pfizer Inc., priority 2019, published 2022).
“Also recorded” adds a separate entry of the source.

What was measured:
[1] = tested on: PBMC and HUVEC+LPS (TLR4 ligand); assay: BioMAP LPS system; type: cell-based, human; settings: monocyte-driven Th1 inflammation; for Inhibition of biomarker readouts in the LPS system: concentrations of FIGS. 12-14; for Increased biomarker readouts in the LPS system: tofacitinib 37-1000 nM
Text: (§1) The BioMAP systems consist of human primary cell-based systems designed to model different aspects of the human body in an in vitro format. The 12 systems tested characterized the test compounds across a broad set of systems modeling various human disease states. BioMAP systems were constructed with one or more primary cell types from healthy human donors, with stimuli (such as cytokines or growth factors) added to capture relevant signaling networks that naturally occur in human tissue or pathological conditions. Vascular biology was modeled in both a Th1 (3C system) and a Th2 (4H system) inflammatory environment, as well as in a Th1 inflammatory state specific to arterial smooth muscle cells (CASM3C system). Additional systems recapitulated aspects of the systemic immune response that included monocyte-driven Th1 inflammation (LPS system) or T cell stimulation (SAg system), chronic Th1 inflammation driven by macrophage activation (IMphg system) and the T cell-dependent activation of B cells that occurs in germinal centers (BT system). The BE3C system (Th1) and the BF4T system (Th2) represented airway inflammation of the lung, while the MyoF system modeled myofibroblast-lung tissue remodeling. Lastly, skin biology was addressed in the KF3CT system modeled Th1 cutaneous inflammation and the HDF3CGF system modeled wound healing.
(§2) All cells were from a pool of multiple donors (n=2-6), commercially purchased and handled according to the recommendations of the manufacturers. Human blood derived CD14+ monocytes were differentiated into macrophages in vitro before being added to the IMphg system. Abbreviations were used as follows: human umbilical vein endothelial cells (HUVEC), peripheral blood mononuclear cells (PBMC), human neonatal dermal fibroblasts (HDFn), B cell receptor (BCR), T cell receptor (TCR) and toll-like receptor (TLR). Cell types and stimuli used in each system were as follows:
(§3) 3C system [HUVEC+(IL-1β, TNFα and IFNγ)]; 4H system [HUVEC+(IL-4 and histamine)]; LPS system [PBMC and HUVEC+LPS (TLR4 ligand)]; SAg system [PBMC and HUVEC+T cell receptor (TCR) ligands]; BT system [CD19+B cells and PBMC+(α-IgM and TCR ligands)]; BF4T system [bronchial epithelial cells and HDFn+(TNFα and IL-4)]; BE3C system [bronchial epithelial cells+(IL-1p, TNFα and IFNγ)]; CASM3C system [coronary artery smooth muscle cells+(IL-1p, TNFα and IFNγ)]; HDF3CGF system [HDFn+(IL-1β, TNFα, IFNγ, EGF, bFGF and PDGF-BB)]; KF3CT system [keratinocytes and HDFn+(IL-1β, TNFα and IFNγ)]; MyoF system [differentiated lung myofibroblasts+(TNFα and TGFβ)]; and IMphg system [HUVEC and M1 macrophages+Zymosan (TLR2 ligand)].
Systems were derived from either single cell types or co-culture systems. Adherent cell types were cultured in 96 or 384-well plates until confluence, followed by the addition of PBMC (SAg and LPS systems). The BT system consisted of CD19+B cells co-cultured with PBMC and stimulated with a BCR activator and low levels of TCR stimulation. Test agents were prepared in DMSO (final concentration <0.1%) and were added 1 hour before stimulation, and remained in culture for 24 hours or as otherwise indicated (48-hrs, MyoF system; 72-hrs, BT system (soluble readouts); 168-hrs, BT system (secreted IgG)). Each plate contained drug controls (e.g., legacy control test agent colchicine at 1.1 μM), negative controls (e.g., non-stimulated conditions) and vehicle controls (e.g., 0.1% DMSO) appropriate for each system. Direct ELISA was used to measure biomarker levels of cell-associated and cell membrane targets. Soluble factors from supernatants were quantified using either HTRF® detection, bead-based multiplex immunoassay or capture ELISA. Overt adverse effects of test agents on cell proliferation and viability (cytotoxicity) were detected by sulforhodamine B (SRB) staining, for adherent cells, and alamarBlue® reduction for cells in suspension. […]

[2] = tested on: PBMC and HUVEC+T cell receptor (TCR) ligands; assay: BioMAP SAg system; type: cell-based, human; settings: for Inhibition of biomarker readouts in the SAg system: T cell-driven Th1 vascular inflammation, concentrations of FIGS. 12-16
Text: as §1, §2, §3
Systems were derived from either single cell types or co-culture systems. Adherent cell types were cultured in 96 or 384-well plates until confluence, followed by the addition of PBMC (SAg and LPS systems). The BT system consisted of CD19+B cells co-cultured with PBMC and stimulated with a BCR activator and low levels of TCR stimulation. Test agents were prepared in DMSO (final concentration <0.1%) and were added 1 hour before stimulation, and remained in culture for 24 hours or as otherwise indicated (48-hrs, MyoF system; 72-hrs, BT system (soluble readouts); 168-hrs, BT system (secreted IgG)). Each plate contained drug controls (e.g., legacy control test agent colchicine at 1.1 μM), negative controls (e.g., non-stimulated conditions) and vehicle controls (e.g., 0.1% DMSO) appropriate for each system. Direct ELISA was used to measure biomarker levels of cell-associated and cell membrane targets. Soluble factors from supernatants were quantified using either HTRF® detection, bead-based multiplex immunoassay or capture ELISA. Overt adverse effects of test agents on cell proliferation and viability (cytotoxicity) were detected by sulforhodamine B (SRB) staining, for adherent cells, and alamarBlue® reduction for cells in suspension.

SMILES	Inhibition of biomarker readouts in the LPS system ([1]; listed as 1-(((2S,3S,4S)-3-Ethyl-4-fluoro-5-oxopyrrolidin-2-yl)methoxy)-7-methoxyisoquinol)	Inhibition of biomarker readouts in the LPS system ([1]; listed as 1-(((2S,3S,4S)-3-ethyl-4-fluoro-5-oxopyrrolidin-2-yl)methoxy)-7-methoxyisoquinol)	Inhibition of biomarker readouts in the SAg system [2]	Increased biomarker readouts in the LPS system [1]	Increased biomarker readouts in the LPS system ([1]; listed as Tofacitinib)	Inhibition of biomarker readouts in the SAg system ([2]; listed as Tofacitinib)	Proliferation of T cells in the SAg system ([2]; concentrations of FIGS. 13-14)
CC[C@@H]1[C@H](F)C(=O)N[C@@H]1COc1nccc2cc(C(N)=O)c(OC)cc12 [PF-06650833, 1-(((2S,3S,4S)-3-Ethyl-4-fluoro-5-oxopyrrolidin-2-yl)methoxy)-7-methoxyisoquinoline-6-carboxamide]	primarily active across all tested concentrations; also recorded: MCP-1, VCAM-1, E-selectin, IL-8, IL-1a, sTNFa, sPGE2, CD40, CD69, M-CSF, and TF; also recorded: strongly inhibited activation responses	PGE2, TNFα, IL-1α, and MCP1; also recorded: strongly and selectively inhibited monocyte activation responses; also recorded: MCP-1, VCAM-1, CD40, E-selectin, CD69, IL-8, IL-1α, M-CSF, sPGE2, and sTNFα	no activity	–	–	–	–
C[C@@H]1CCN(C(=O)CC#N)C[C@@H]1N(C)c1ncnc2[nH]ccc12 [tofacitinib, 3-((3R,4R)-4-Methyl-3-(methyl(7H-pyrrolo[2,3-d]pyrimidin-4-yl)amino)piperidin-1-yl)-3-oxopropanenitrile]	–	–	CD38 and CD69 and modestly inhibited CD69	increased levels of IL-1α, secreted PGE2 and secreted TNFα; also recorded: stimulated production of IL-1α, sPGE2 and sTNFα	IL-1α, sPEG2, and sTNFα	CD38 and CD69	antiproliferative activity
